Entries after “also recorded” stand apart in the source; their conditions may differ.
Columns and labels:
[1] = ORAC assay (oxygen radical absorbance capacity, ORAC-FL); details: radical scavenging against peroxyl radicals; mean ± SD of three experiments
Procedure: The radical-scavenging activities of the hydroquinone series against peroxyl radicals were assessed (ORAC assays). […] Similarly, for the series with the gem-diethyl group on ring B (compounds 6–10), compound 6 presents the highest antioxidant capacity (7.0 + 0.3 mol TE/mol compound). […] The replacement of the gem-dimethyl with the gem-diethyl group also decreases the antioxidant capacity.
The antioxidant activity was determined by ORAC (oxygen radical absorbance capacity) assays. Briefly, the antioxidant capacity for ORAC-FL was estimated by measuring the changes in fluorescence after 120 min of reaction with the radical. Assays were performed using a 96-well microplate in a Synergy H1 hybrid multi-mode microplate reader (Biotek, Winooski, VT, USA), and the results were expressed as µmol Trolox 100 g^−1 DW. Three replicates were accomplished for each analysis.

α-glucosidase = α-glucosidase inhibitory activity (p-nitrophenyl α-D-glucopyranoside substrate); assay type: biochemical; details: for IC50: pH 6.9, 37 °C, 15 min, mean ± SD of three experiments, read-out: Inhibition of α-Glucosidase Activity IC50; for pIC50 (α-glucosidase): pIC50 = −log[IC50], Figure 2A
Procedure: The inhibition of α-glucosidase was determined following a previous method [62] using p-nitrophenyl α-D-glucopyranoside as a substrate. The reaction mixture contained 160 µL of 0.1 M sodium phosphate buffer (pH = 6.9), 5 µL of enzyme (5.46 U/mL), and polyphenolic extract (0.17–1.36 µg/mL). After the pre-incubation of the reaction mixture on ice for 5 min, the enzyme reaction was started by adding 5 µL of 25 mM p-nitrophenyl α-D-glucopyranoside into this mixture. The reaction was incubated for 15 min at 37 °C. Then, 80 µL of 0.2 M sodium carbonate was added. The absorbance was measured at 405 nm in a microplate reader (Biotek ELx808, Agilent, Santa Clara, CA, USA). Enzyme inhibition was calculated using the following equation: % inhibition = (A0 − As)/A0 × 100, where A0 is the absorbance of the control (blank, without extract) and As is the absorbance in presence of the extract. IC50 values denote the µg GAE/mL required to inhibit the enzyme by 50%.

Caco-2 cells [2] = assay: MTT assay, cell proliferation; assay type: cell-based, human; details: Caco-2, 24 h treatment, 1-100 µM (Figure 3A)
Procedure: We evaluate the effect of ortho-carbonyl hydroquinones 1–10 on the intestinal Caco-2 cell line at 24 h of treatment.
Caco-2 cells were grown in Dulbecco’s modified Eagle’s Medium/Nutrient Mixture F-12 (D-MEM/F-12), supplemented with 5% fetal bovine serum (FBS), penicillin (100 IU/mL), streptomycin (100 μg/mL), and nonessential amino acid solution 1% (GIBCO, Thermo Fisher Scientific, Grand Island). The culture media contained no exogenous pyruvate supplementation, and the cells were maintained in a humidified atmosphere at 37 °C and 5% CO2.
The cell proliferation was determined using the MTT assay. The cells were incubated in 96-well plates at 7000 cells per well and incubated for 24 h. The cells were treated for 24 h with compounds (1, 5, 10, 30, 50, and 100 μM). After treatment, the culture medium was removed, and the cells were incubated with MTT for 1 h at 37 °C. Finally, 100 μL of DMSO was added and measured by spectrophotometry at 570 nm, as previously described.

Caco-2 cells [3] = assay: Extracellular acidification rate and oxygen consumption rate in real time (Seahorse XFe96); assay type: cell-based, human; details: Caco-2, 100 µM; for Effect on proton leak-driven OCR: 24 h (Figure 4A-D); for Effect on max OCR: 24 h (Figures 3C, 4A-D); for Effect on basal mitochondrial OCR / Effect on glycolysis (ECAR) / Effect on glycolysis, cluster in dendrogram: 24 h; for Effect on basal mitochondrial OCR: compared to control (Figures 3B, 4A-D); for Effect on glycolysis (ECAR): compared to control (Figures 3B, 4E-H); for Effect on glycolysis, cluster in dendrogram: clusters of Figure 3C
Procedure: We previously described how ortho-carbonyl hydroquinone scaffolds inhibit oxidative phosphorylation in breast cancer cells. Since the reduction in glucose utilization and metabolism in intestinal cells is a promising target for T2DM treatment, the effect of these compounds on mitochondrial respiration and glycolysis in Caco-2 cells was determined. […] The effect of ortho-carbonyl hydroquinone series (100 µM) on five parameters of mitochondrial respiration (basal OCR, max OCR, spare capacity, ATP-linked OCR, and proton leak-driven OCR), and two of glycolysis (glycolytic capacity and glycolysis), is represented in a dendrogram (Figure 3C). […] OCR: compounds 1, 6, 7, and 9. […] No correlations between OCR and ECAR parameters, α-glucosidase activity inhibition, or ORAC were observed (Supplementary Figure S1).
In contrast, compound 10 increases the proton leak-OCR and decreases max OCR (Figure 4A–D).
To analyze the extracellular acidification rate (ECAR), Caco-2 cells (10,000 cells/well) were seeded on XFe96 V3-PS multi-well plates and kept for 24 h at 37 °C in 5% CO2 with a DMEM culture medium supplemented with FBS. After 24 h, the cells were stimulated by compounds at 100 μM for 24 h. Then, the culture medium was replaced with assay media (unbuffered DMEM without red phenol, with 4 mM glutamine and 10 mM glucose, pH = 7.4) 1 h before the assay. Glycolysis was evaluated by the sequential injection of 10 mM glucose, 1 µM oligomycin, and 100 mM 2-deoxy-D-glucose (2-DG), and ECAR was analyzed using specific excitation and emission wavelengths of protons (470/530 nm). To study the mitochondrial function, the sequential injection of 1 μM oligomycin, 250 nM FCCP, 1 μM rotenone, and 1 μM antimycin A was added. The oxygen consumption rate (OCR) measurements were made with the specific excitation and emission wavelengths of the fluorescent probes for oxygen (532/650 nm) using a Seahorse XFe96 Analyzer (Seahorse Agilent, USA), and OCR and ECAR data were normalized by protein content/well, which was determined using a BCA kit. Each experiment was performed at least in triplicate. The OCR/ECAR data analysis and dendrograms were performed using XLSTAT software (version 2023.2.1414, Lumivero, New York, NY, USA).

Caco-2 cells [4] = assay: Menadione-induced cytosolic (DHE) and mitochondrial (MitoSOX) ROS by flow cytometry; assay type: cell-based, human; details: Caco-2, 100 and 200 µM for 24 h, then 25 µM menadione 1 h; for Effect on menadione-induced mitochondrial ROS production: MitoSOX Red
Procedure: Using menadione as an ROS inducer, the preventive effect of compounds 5 and 10 on mitochondrial and cytosolic ROS production was evaluated. No changes in the mitochondrial ROS production were observed (Figure 4I).
The mtROS and ROS levels were measured using MitoSOX® Red Mitochondrial Superoxide (Invitrogen, Carlsbad, CA, USA) and Invitrogen™ Dihydroethidium (Hydroethidine, DHE) probes, respectively. The Caco-2 cells were incubated in 12-well plates at 50,000 cells for 24 h. The cells were treated with compounds 5 and 10 at 100 μM and 200 μM for 24 h. Next, the cells were incubated with 25 μM menadione 25 μM for 1 h, and then the cells were washed with PBS and incubated with MitoSOX Red® (5 µM) or DHE (5 μM) for 30 min. Then, they were recollected, and washed, and the fluorescence was detected by flow cytometry according to Urra et al., 2018 [31].

| Compound | ORAC [1] | IC50 (α-glucosidase) | pIC50 (α-glucosidase) (α-glucosidase) | Effect on MTT reduction (Caco-2 cells [2]) | Effect on proton leak-driven OCR (Caco-2 cells [3]) | Effect on max OCR (Caco-2 cells [3]) | Effect on basal mitochondrial OCR (Caco-2 cells [3]) | Effect on glycolysis (ECAR) (Caco-2 cells [3]) | Effect on glycolysis, cluster in dendrogram (Caco-2 cells [3]) | Effect on menadione-dependent cytosolic ROS production (Caco-2 cells [4]; DHE) | Effect on menadione-induced mitochondrial ROS production (Caco-2 cells [4]) | melting point | Effect on max OCR (Caco-2 cells [3]; listed as compound 10) |
| --- | --- | --- | --- | --- | --- | --- | --- | --- | --- | --- | --- | --- | --- |
| CC1=CC(C)(C)c2c(O)c(C)c(C)c(O)c2C1=O [Compound 5, 5,8-Dihydroxy-2,4,4,6,7-pentamethylnaphthalen-1(4H)-one] | 0.37 ± 0.01 mol TE/mol Compound | 103 µM | 3.98 | significantly increased the MTT reduction | without affecting | reduced effect on max OCR; also recorded: reduces | reduces | reduces the glycolysis; also recorded: significantly reduce the glycolysis | glycolysis inhibitors | significantly prevented | No changes | 199.9 to 201.5 °C | – |
| CCC1(CC)C=CC(=O)c2c(O)ccc(O)c21 [Compound 6, 4,4-Diethyl-5,8-dihydroxynaphthalen-1(4H)-one] | 7.0 ± 0.3 mol TE/mol Compound | 195 µM | 3.71 | decreased the MTT reduction | – | strong inhibitory effect on max. OCR | reduces the basal mitoOCR | increases ECAR | glycolysis enhancers | – | – | – | – |
| CCC1(CC)C=C(C)C(=O)c2c(O)c(C)c(C)c(O)c21 [Compound 10, 4,4-Diethyl-5,8-dihydroxy-2,6,7-trimethylnaphthalen-1(4H)-one] | 0.10 ± 0.01 mol TE/mol Compound | 78 µM | 4.10 | significantly increased the MTT reduction | increases | reduced effect on max OCR | – | reduces the glycolysis; also recorded: significantly reduce the glycolysis | glycolysis inhibitors | – | No changes | – | decreases |

— paper PMC11313435, “Identification of Antioxidant Methyl Derivatives of Ortho-Carbonyl Hydroquinones That Reduce Caco-2 Cell Energetic Metabolism and Alpha-Glucosidase Activity” (International Journal of Molecular Sciences, 2024)
